From patent publication US11547725B2, “Anti-cancer T cells and their preparation using coenzyme A” (UNIVERSITY HEALTH NETWORK, priority 2017, dated 2023)

What was measured:
[1] = tested on: dextran sulfate sodium (DSS) colitis; assay: DSS colitis model; format: in vivo, mouse; conditions: 2.5% DSS in water 5 days; oral CoA 0.5 mg/mL in drinking water vs vehicle
Procedure: For DSS-colitis experiments, 8-12 week old female C57BL/6 mice were randomized into different cohorts and colitis was induced using 2.5% DSS (MP Bio) added to the drinking water of mice for 5 consecutive days. CoA (0.5 mg/mL) or vehicle control was added to the drinking water on day 0. On day 5, mice were switched to fresh water without any DSS added, supplemented with either CoA (0.5 mg/mL) or vehicle control.

[2] = tested on: CD8+ T cells; assay: Seahorse OCR / ECAR; format: cell-based, mouse
Procedure: (§1) Seahorse was performed as previously described (11). ATP quantification was performed on day 3 polarized T cells using a commercial kit (Sigma) according to the recommended protocol. For SITA, CD8+ T cells activated for three days in the presence of vehicle or CoA were harvested, washed and incubated for 2.5 hours with U-13C6-glucose (Cambridge Isotopes). Cells were then washed and pellet was frozen in methanol. The cells were thawed on ice and lysed by sonication at 4° C. using a Diagenode Bioruptor (30s. on, 30s off, 5 mins). The resulting mixtures were spun down (15 mins 13000 rpm 4° C.) to remove the cellular debris, the resulting supernatants were transferred to clean microfuge tubes and the solvent was removed using a speed-vac at room temperature. The resulting pellets were stored at −70° C. until derivitization. The pellets were solubilized in 30 μL of pyridine containing methoxyamine(10 mg/mL; Sigma) and each sample was spiked with 1 μL of myristic acid-D27 (750 ng/mL in pyridine; Cambridge Isotopes). The samples were vortexed, sonicated, transferred to autoinjection vials and incubated at room temperature for 30 mins. Subsequent to this, 70 uL of N-tert-Butyldimethylsilyl-N-methyltrifluoroacetamide (MTBSTFA; Sigma) was added and the samples were incubated at 70° C. for 30 mins. GC/MS analysis was performed using an Agilent 5975C GC/MS equipped with a DB-5MS+DG capillary column. 1 uL of sample was injected onto the GC column in splitless mode with an inlet temperature of 280° C. and the data was collected by electron impact set at 70 eV. Helium was used as the carrier gas with a flow rate of 1.55 mL/min. The quadrupole was set at 150° C. and the GC/MS interface at 285° C. The oven program for all metabolite analyses started at 60° C. held for 1 min, then increasing at a rate of 10° C./min until 320° C. Bake-out was at 320° C. for 10 mins and the sample data were acquired in scan mode (1-600 m/z).
To further characterize these observed differences in each Tc subset, we analyzed their respective utilization of glycolysis versus OXPHOS using the Seahorse Bioanalyzer. This method allows the concurrent measurement of the oxygen consumption rate (OCR—indicative of OXPHOS) and the extracellular acidification rate (ECAR—indicative of glycolysis) in real-time. […] Consistent with the increased ATP yield of oxidative metabolism compared to glycolysis, Tc22s had the highest amounts of intracellular ATP (FIG. 1F). We also observed metabolites involved in the TCA cycle and OXPHOS, particularly succinate, to be increased in Tc22s (FIG. 6).

[3] = tested on: CD8+ T cells; assay: Tc subset polarization of CD8+ T cells, intracellular cytokine staining by flow cytometry; format: cell-based, mouse; conditions: for Tc22 polarization: CD8+ T cells activated three days in Tc22 conditions, compound vs vehicle (oligomycin 100 nm, etomoxir 40 μm, pantothenate 8 mM, CoA 2.5-3.5 mM)
[4] = tested on: CD4+ T cells; assay: OCR, OCR:ECAR ratio and ATP production in CD4+ T cells; format: cell-based, mouse; conditions: CD4+ T cells activated with vehicle or CoA
Procedure: as §1, with “1 uL of sample was injected onto the GC column in splitless mode with an inlet temperature of 280° C. and the data was collected by electron impact set at 70 eV. Helium was used as the carrier gas with a flow rate of 1.55 mL/min. The quadrupole was set at 150° C. and the GC/MS interface at 285° C. The oven program for all metabolite analyses started at 60° C. held for 1 min, then increasing at a rate of 10° C./min until 320° C. Bake-out was at 320° C. for 10 mins and the sample data were acquired in scan mode (1-600 m/z).” left out

[5] = tested on: CD8+ T cells; assay: Stable isotope tracer analysis (SITA) with 13C-glucose, GC/MS; format: cell-based, mouse; conditions: three days CoA or vehicle
Procedure: as §1, with “GC/MS analysis was performed using an Agilent 5975C GC/MS equipped with a DB-5MS+DG capillary column. 1 uL of sample was injected onto the GC column in splitless mode with an inlet temperature of 280° C. and the data was collected by electron impact set at 70 eV. Helium was used as the carrier gas with a flow rate of 1.55 mL/min. The quadrupole was set at 150° C. and the GC/MS interface at 285° C. The oven program for all metabolite analyses started at 60° C. held for 1 min, then increasing at a rate of 10° C./min until 320° C. Bake-out was at 320° C. for 10 mins and the sample data were acquired in scan mode (1-600 m/z).” left out
The data was analyzed using Agilent MSD-Chemstation interfaced to the NIST11 library. […]

[6] = tested on: CD8+ T cells; assay: Cytokines quantified in supernatant (cytometric bead array or ELISA); format: cell-based, mouse; conditions: three day culture, CD8+ T cells activated with vehicle or CoA
Procedure: (§2) Antibodies used for flow cytometry were purchased from eBioscience, Biolegend and BD Pharmingen. Antibody clones used were: CD4 (RM-45), CD8 (53-6.7), IL-22 (IL22JOP and Poly5164), IL-17 (eBio17B7), IFN-γ (XMG1.2) and TNF-α (MP6-XT22). Antibodies used for western blotting were HIF-1a (Caymen Chem-10006421) and β-actin (Sigma—A2066). For intracellular cytokine staining, cells were re-stimulated for 5-6 hours with Cell-Stimulation Cocktail (eBioscience) in the presence of Brefeldin A (eBioscience), followed by staining using Cytofix/Cytoperm (BD Pharmingen). Flow cytometry data was acquired on a FACSCanto II (BD) and analyzed using FlowJo software (Tree Star). Cytokines were quantified in the supernatant using LEGENDPLEX cytometric bead array (Biolegend) or by ELISA (eBioscience)
Oligomycin, Etomoxir, Diethyl succinate and Calcium-D Pantothenate were purchased from Sigma, and Coenzyme A Trilithium Salt (CoA) and HIF-inhibitor (CAS 934593-90-5) were purchased from EMD Millipore. Oligomycin (100 nm) was added to CD8+ T cells 24 hours after the start of activation, while Etomoxir (40 μm), Pantothenate (8 mM), Diethyl Succinate (14 mM) and HIF-Inhibitor (40 μM) were added at the start of activation. CoA was added at the start of activation unless otherwise indicated at a concentration of 2.5-3.5 mM depending on the lot.

[7] = tested on: CD8+ T cells; assay: RNA sequencing of CD8+ T cells activated with CoA or vehicle; format: cell-based, mouse; conditions: RNA seq
Procedure: RNA was extracted from CD8+ T cells activated for three days in the presence of CoA or Vehicle using Qiagen RNEasy kit. Libraries were prepared using TruSeq Stranded Total RNA kit. Two hundred nanograms from RNA samples were ribosomal RNA depleted using Ribo-zero Gold rRNA beads, following purification the RNA was fragmented. The cleaved RNA fragments were copied into first strand cDNA using reverse transcriptase and random primers. This is followed by second strand cDNA synthesis using RNase H and DNA Polymerase I. A single “A” based were added and adapter ligated followed by purification and enrichment with PCR to create cDNA libraries. Final cDNA libraries were size validated using Agilent Bioanalyzer and concentration validated by qPCR. All libraries were normalized to 10 nM and pooled together. 10 pM of pooled libraries were loaded onto Illumina cBot for cluster generation. Clustered flow cell was then sequenced Pair-end 100 cycles V3 using Illumina HighSeq 2000 to achieve ˜30 million reads per sample.
The Tophat (2.0.8b) software suite with Bowtie (2.0.5) was used to align reads to the Mus musculus mm10 mouse genome (igenome). […] The cufflinks (2.2.1) software suite was used to quantify alignments. Cuffquant was used to quantify individual sample alignments and Cuffnorm was used to normalize quantified data for each group of biological replicates. […]

[8] = tested on: HIF-1α; assay: Western blotting for HIF-1a; format: cell-based, mouse; conditions: CD8+ T cells activated with vehicle or CoA
Procedure: as §2

[9] = tested on: CD8+ T cells; assay: ATP quantification (commercial kit); format: cell-based, mouse; conditions: CD8+ T cells activated with CoA vs vehicle
Procedure: as §1, with “1 uL of sample was injected onto the GC column in splitless mode with an inlet temperature of 280° C. and the data was collected by electron impact set at 70 eV. Helium was used as the carrier gas with a flow rate of 1.55 mL/min. The quadrupole was set at 150° C. and the GC/MS interface at 285° C. The oven program for all metabolite analyses started at 60° C. held for 1 min, then increasing at a rate of 10° C./min until 320° C. Bake-out was at 320° C. for 10 mins and the sample data were acquired in scan mode (1-600 m/z).” left out

[10] = tested on: CD4+ T cells; assay: Th22 polarization of SMARTA CD4+ T cells, cytokine expression; format: cell-based, mouse; conditions: CoA vs vehicle, non-polarizing or Th22 conditions
[11] = tested on: human CD8+ cells; assay: Human T cell Tc22 polarization, intracellular cytokines by flow cytometry; format: cell-based; conditions: human naive T cells, Tc22 conditions, pantothenate 8 mM on day 0, five days
Procedure: Peripheral blood mononuclear cells were obtained from healthy donors following institutional review board approval. Written informed consent was obtained from all donors who provided the samples. PBMCs were magnetically sorted for naïve T cells (Miltenyi Biotec) and seeded into a 96-well plate previously coated with 5 μg/mL anti-CD3 (eBioscience, clone OKT3). To induce Tc22 polarization, the following antibodies and cytokines were added to culture: 1 μg/mL anti-CD28 (eBioscience, clone CD28.2), 5 μg/mL anti-IFNγ (BioLegend, clone B27), 5 μg/mL anti-IL-4 (BioLegend, clone 8D4-8), 5 μg/mL anti-TGFβ (eBioscience, clone 1D11.16.8), 20 ng/mL IL-6, 10 ng/mL IL-21, 10 ng/mL IL-23, 40 ng/mL TNF-α (All from BioLegend) and 2 ng/mL FICZ. Pantothenate (8 mM) or vehicle control was also added on day 0. Five days later, cells were stimulated with PMA/ionomycin+Brefeldin for 5-6 hours. Cells were then stained and analyzed for intracellular cytokines by flow cytometry.

[12] = CD8+ T cells activated with CoA vs vehicle
[13] = re-stimulated 48 hours with anti-CD3 with vehicle or CoA

SMILES: CC(C)(COP(=O)(O)OP(=O)(O)OC[C@H]1O[C@@H](n2cnc3c(N)ncnc32)[C@H](O)[C@@H]1OP(=O)(O)O)[C@@H](O)C(=O)NCCC(=O)NCCS.[Li].[Li].[Li] [CoA, Coenzyme A Trilithium Salt]
- Disease severity (% weight loss) [1]: decrease in disease severity
- Basal ECAR [2, 12]: lower basal ECAR
- Basal OCR [2, 12]: higher basal OCR
- OCR:ECAR ratio [2, 12]: high OCR:ECAR ratio
- Oxidative phenotype (OCR, ECAR, OCR:ECAR, ATP) in previously activated CD8+ T cells [2, 13]: promote an oxidative phenotype
- Tc22 polarization [3]: greatly enhanced polarization
- Cytokine expression in non-polarizing conditions ([3]; CD8+ T cells activated with CoA alone, absence of polarizing cytokines): skewed primarily towards an IL-22^+ IL-17^− IFNγ^− population
- Tc22 induction in presence of IL-6 neutralizing antibody ([3]; CoA with anti IL-6 (10 ug/mL), three days): retained the ability to induce Tc22s
- Tc22 polarization in APC-free system ([3]; platebound anti-CD3 and soluble anti CD28, three days, CoA added 24 hours after start, non-polarizing or Tc22 conditions): induced and enhanced Tc22 polarization
- IL-22 production in previously activated CD8+ T cells [3, 13]: able to induce IL-22 production
- ATP production in CD4+ T cells [4]: enhanced ATP production
- Metabolic shift (OCR, OCR:ECAR ratio) in CD4+ T cells [4]: metabolic shift towards OXPHOS
- Total intracellular pools of TCA intermediates [5]: increased total intracellular pools of many of the TCA intermediates
- Incorporation of 13C label into TCA metabolites ([5]; then 2.5 hours 13C glucose): enhanced incorporation of the ^13C label into TCA metabolites
- Cytokine profile in supernatants [6]: primarily up-regulate IL-22
- Expression of genes up-regulated by Tc22 polarizing cytokines (Tc22 signature) ([7]; CoA alone vs vehicle, three days): strongly up-regulated
- Gene expression altered by treatment (GO term analysis) ([7]; CoA vs vehicle): primarily altered the expression of immune system genes and not metabolic genes
- Levels of HIF-1α [8]: substantially increased levels of HIF-1α
- Intracellular levels of ATP [9]: increased intracellular levels of ATP
- Th22 polarization [10]: induced and enhanced Th22 polarization

SMILES: CCOC(=O)[C@@]1(CCCCCCOc2ccc(Cl)cc2)CO1 [etomoxir, Etomoxir]
- Tc22 polarization [3]: had no effect on Tc22 polarization

SMILES: CC[C@H]1/C=C/C=C/C[C@@H](C)[C@H](O)[C@@](C)(O)C(=O)[C@@H](C)[C@H](O)[C@@H](C)C(=O)[C@@H](C)[C@H](O)[C@@H](C)/C=C/C(=O)O[C@@H]2[C@H](C)[C@H](CC1)O[C@]1(CC[C@H](C)[C@H](C[C@@H](C)O)O1)[C@H]2C [oligomycin, Oligomycin]
- Tc22 polarization [3]: decrease in Tc22 polarization
- Tc1 polarization ([3]; Tc1 conditions, oligomycin 100 nm added 24 hours after start of activation): did enhance Tc1 polarization
- Tc17 polarization ([3]; Tc17 conditions, oligomycin 100 nm added 24 hours after start of activation): did not affect Tc17 polarization

SMILES: CC(C)(CO)[C@@H](O)C(=O)NCCC(=O)O [pantothenate, Calcium-D Pantothenate]
- Tc22 polarization [3]: enhanced polarization
- Tc22 polarization, human CD8+ cells [11]: enhanced polarization

SMILES: CCOC(=O)CCC(=O)OCC [succinate, Diethyl succinate]
- IL-22 production ([3]; CD8+ T cells activated three days with exogenous succinate (diethyl succinate 14 mM)): enhanced IL-22 production
